Assay results published in patent US10227344B2, “CK2 inhibitors, compositions and methods thereof” (Polaris Pharmaceuticals, Inc., priority 2016, dated 2019).

Experiments:
Type in all cases: cell-based
BT-474 = assay: Cancer cell panel, cell viability (resazurin): Breast, BT-474; details: BT-474 (Breast), 72 hours; labelled drug combined with Example 3
ZR-75-1 = assay: Cancer cell panel, cell viability (resazurin): Breast, ZR-75-1; details: ZR-75-1 (Breast), 72 hours; labelled drug combined with Example 3
T47D = assay: Cancer cell panel, cell viability (resazurin): Breast, T47D; details: 72 hours, labelled drug combined with Example 3
Experimental: (§1) Cells were plated in 96-well plates and treated for 72 hours with a serially diluted CK2 inhibitor or anti-cancer drug or their combination. The suspension cell lines were treated right after plating, while the adherent cells were allowed to attach overnight prior to the start of the treatment.
(§2) Cell viability was determined by adding resazurin to cell cultures and measuring fluorescence with a plate reader. Relative cell viability was calculated by dividing the cell viability signal from a test sample by that of a non-treated control. […] Bliss Independence and Highest Single Agent models were used to determine if there is synergy, additivity or antagonism between the CK2 inhibitor and an anti-cancer drug.

MCF7 = assay: Cancer cell panel, cell viability (resazurin): Breast, MCF7; details: 72 hours, labelled drug combined with Example 3
Experimental: as §1, §2

786-O = assay: Cancer cell panel, cell viability (resazurin): Renal, 786-O; details: 786-O (Renal), 72 hours; labelled drug combined with Example 3
ACHN = assay: Cancer cell panel, cell viability (resazurin): Renal, ACHN; details: 72 hours, labelled drug combined with Example 3
Caki-1 = assay: Cancer cell panel, cell viability (resazurin): Renal, Caki-1; details: Caki-1 (Renal), 72 hours; labelled drug combined with Example 3
Caki-2 = assay: Cancer cell panel, cell viability (resazurin): Renal, Caki-2; details: Caki-2 (Renal), 72 hours; labelled drug combined with Example 3
Experimental: as §1, §2

A375 = assay: Cancer cell panel, cell viability (resazurin): Melanoma, A375; details: 72 hours, labelled drug combined with Example 3
SK-MEL-3 = assay: Cancer cell panel, cell viability (resazurin): Melanoma, SK-MEL-3; details: SK-MEL-3 (Melanoma), 72 hours; labelled drug combined with Example 3
SK-MEL-24 = assay: Cancer cell panel, cell viability (resazurin): Melanoma, SK-MEL-24; details: SK-MEL-24 (Melanoma), 72 hours; labelled drug combined with Example 3
WM-115 = assay: Cancer cell panel, cell viability (resazurin): Melanoma, WM-115; details: WM-115 (Melanoma), 72 hours; labelled drug combined with Example 3
MeWO = assay: Cancer cell panel, cell viability (resazurin): Melanoma, MeWO; details: 72 hours, labelled drug combined with Example 3
Experimental: as §1, §2

RPMI8226 = assay: Cancer cell panel, cell viability (resazurin): multiple myeloma, RPMI8226; details: 72 hours, labelled drug combined with Example 3
U87MG = assay: Cancer cell panel, cell viability (resazurin): Glioblastoma, U87MG; details: 72 hours, labelled drug combined with Example 3
Ramos = assay: Cancer cell panel, cell viability (resazurin): Burkitt's Lymphoma, Ramos; details: 72 hours, labelled drug combined with Example 3
Raji = assay: Cancer cell panel, cell viability (resazurin): Burkitt's Lymphoma, Raji; details: 72 hours, labelled drug combined with Example 3
Daudi = assay: Cancer cell panel, cell viability (resazurin): Burkitt's Lymphoma, Daudi; details: 72 hours, labelled drug combined with Example 3
Experimental: as §1, §2

NAMALWA = assay: Cancer cell panel, cell viability (resazurin): Burkitt's Lymphoma, NAMALWA; details: 72 hours, labelled drug combined with Example 3
K562 = assay: Cancer cell panel, cell viability (resazurin): Leukemia, K562; details: 72 hours, labelled drug combined with Example 3
HL60 = assay: Cancer cell panel, cell viability (resazurin): Leukemia, HL60; details: 72 hours, labelled drug combined with Example 3
EOL-1 = assay: Cancer cell panel, cell viability (resazurin): Leukemia, EOL-1; details: EOL-1 (Leukemia), 72 hours; labelled drug combined with Example 3
MOLT4 = assay: Cancer cell panel, cell viability (resazurin): Leukemia, MOLT4; details: 72 hours, labelled drug combined with Example 3

Nc1ccn([C@@H]2O[C@H](CO)[C@@H](O)C2(F)F)c(=O)n1 [Gemcitabine, gemcitabine]
synergy, additivity or antagonism of the combination of Example 3 with the anti-cancer drug (BT-474): + (Additive relative to each agent alone (CI = 0.9-1 by Bliss Independence Model and <0.9 by Highest Single Agent Model))
synergy, additivity or antagonism of the combination of Example 3 with the anti-cancer drug (ZR-75-1): + (Additive relative to each agent alone (CI = 0.9-1 by Bliss Independence Model and <0.9 by Highest Single Agent Model))
synergy, additivity or antagonism of the combination of Example 3 with the anti-cancer drug (T47D): + (Additive relative to each agent alone (CI = 0.9-1 by Bliss Independence Model and <0.9 by Highest Single Agent Model))
synergy, additivity or antagonism of the combination of Example 3 with the anti-cancer drug (MCF7): + (Additive relative to each agent alone (CI = 0.9-1 by Bliss Independence Model and <0.9 by Highest Single Agent Model))
synergy, additivity or antagonism of the combination of Example 3 with the anti-cancer drug (786-O): + + + (Synergy relative to each agent alone (CI = 0.4-0.74 by Bliss Independence Model))
synergy, additivity or antagonism of the combination of Example 3 with the anti-cancer drug (ACHN): + (Additive relative to each agent alone (CI = 0.9-1 by Bliss Independence Model and <0.9 by Highest Single Agent Model))
synergy, additivity or antagonism of the combination of Example 3 with the anti-cancer drug (Caki-1): + (Additive relative to each agent alone (CI = 0.9-1 by Bliss Independence Model and <0.9 by Highest Single Agent Model))
synergy, additivity or antagonism of the combination of Example 3 with the anti-cancer drug (Caki-2): + (Additive relative to each agent alone (CI = 0.9-1 by Bliss Independence Model and <0.9 by Highest Single Agent Model))
synergy, additivity or antagonism of the combination of Example 3 with the anti-cancer drug (A375): + (Additive relative to each agent alone (CI = 0.9-1 by Bliss Independence Model and <0.9 by Highest Single Agent Model))
synergy, additivity or antagonism of the combination of Example 3 with the anti-cancer drug (SK-MEL-3): + (Additive relative to each agent alone (CI = 0.9-1 by Bliss Independence Model and <0.9 by Highest Single Agent Model))
synergy, additivity or antagonism of the combination of Example 3 with the anti-cancer drug (SK-MEL-24): + (Additive relative to each agent alone (CI = 0.9-1 by Bliss Independence Model and <0.9 by Highest Single Agent Model))
synergy, additivity or antagonism of the combination of Example 3 with the anti-cancer drug (WM-115): + (Additive relative to each agent alone (CI = 0.9-1 by Bliss Independence Model and <0.9 by Highest Single Agent Model))
synergy, additivity or antagonism of the combination of Example 3 with the anti-cancer drug (MeWO): + (Additive relative to each agent alone (CI = 0.9-1 by Bliss Independence Model and <0.9 by Highest Single Agent Model))
synergy, additivity or antagonism of the combination of Example 3 with the anti-cancer drug (RPMI8226): + + (Slight synergy relative to each agent alone (CI = 0.75-0.9 by Bliss Independence Model))
synergy, additivity or antagonism of the combination of Example 3 with the anti-cancer drug (U87MG): + (Additive relative to each agent alone (CI = 0.9-1 by Bliss Independence Model and <0.9 by Highest Single Agent Model))
synergy, additivity or antagonism of the combination of Example 3 with the anti-cancer drug (Ramos): + + (Slight synergy relative to each agent alone (CI = 0.75-0.9 by Bliss Independence Model))
synergy, additivity or antagonism of the combination of Example 3 with the anti-cancer drug (Raji): + + (Slight synergy relative to each agent alone (CI = 0.75-0.9 by Bliss Independence Model))
synergy, additivity or antagonism of the combination of Example 3 with the anti-cancer drug (Daudi): + + (Slight synergy relative to each agent alone (CI = 0.75-0.9 by Bliss Independence Model))
synergy, additivity or antagonism of the combination of Example 3 with the anti-cancer drug (NAMALWA): + + (Slight synergy relative to each agent alone (CI = 0.75-0.9 by Bliss Independence Model))
synergy, additivity or antagonism of the combination of Example 3 with the anti-cancer drug (K562): + (Additive relative to each agent alone (CI = 0.9-1 by Bliss Independence Model and <0.9 by Highest Single Agent Model))
synergy, additivity or antagonism of the combination of Example 3 with the anti-cancer drug (HL60): + + (Slight synergy relative to each agent alone (CI = 0.75-0.9 by Bliss Independence Model))
synergy, additivity or antagonism of the combination of Example 3 with the anti-cancer drug (EOL-1): + + + + (Strong synergy relative to each agent alone (CI < 0.4 by Bliss Independence Model))
synergy, additivity or antagonism of the combination of Example 3 with the anti-cancer drug (MOLT4): + + + (Synergy relative to each agent alone (CI = 0.4-0.74 by Bliss Independence Model))
